Measured values as given in ChEMBL document CHEMBL1201862, “PubChem BioAssay data set” (2004).
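Dose response: 5 concentrations. Exposure: 48 h. Format: 96-well plates. Endpoint: linear interpolation; highest concentration if not reached. GI50: concentration for 50% inhibition of growth.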 Active and inactive are the calls of the source. Cut-off read from the data, not from the text of the source: active = GI50 up to about 1.1 µM and inactive = higher.

Columns and labels:
Test in all cases: growth of human tumour cells (NCI), 48 h
ACHN = test system: ACHN
DU-145 = test system: DU-145
A498 = test system: A498
UACC-257 = test system: UACC-257
LOX IMVI = test system: LOX IMVI
U-251 = test system: U-251
MOLT-4 = test system: MOLT-4
BT-549 = test system: BT-549
NCI/ADR-RES = test system: NCI/ADR-RES
OVCAR-8 = test system: OVCAR-8
SK-MEL-2 = test system: SK-MEL-2
HOP-92 = test system: HOP-92
PC-3 = test system: PC-3
MCF7 = test system: MCF7
SF-539 = test system: SF-539
786-0 = test system: 786-0
HCT-15 = test system: HCT-15
MDA-N = test system: MDA-N
Hs-578T = test system: Hs-578T
HOP-62 = test system: HOP-62
CAKI-1 = test system: CAKI-1
K562 = test system: K562
IGROV-1 = test system: IGROV-1
HCT-116 = test system: HCT-116
Malme-3M = test system: Malme-3M
SK-OV-3 = test system: SK-OV-3
UO-31 = test system: UO-31
MDA-MB-231 = test system: MDA-MB-231
T47D = test system: T47D
SK-MEL-28 = test system: SK-MEL-28
UACC-62 = test system: UACC-62
SNB-75 = test system: SNB-75
RXF 393 = test system: RXF 393
OVCAR-5 = test system: OVCAR-5
KM12 = test system: KM12
NCI-H23 = test system: NCI-H23
NCI-H226 = test system: NCI-H226
SW-620 = test system: SW-620
RPMI-8226 = test system: RPMI-8226
A549 = test system: A549
OVCAR-4 = test system: OVCAR-4
HL-60 = test system: HL-60
OVCAR-3 = test system: OVCAR-3
HT-29 = test system: HT-29
NCI-H460 = test system: NCI-H460
COLO 205 = test system: COLO 205
MDA-MB-435 = test system: MDA-MB-435
SK-MEL-5 = test system: SK-MEL-5
SN12C = test system: SN12C
M14 = test system: M14
EKVX = test system: EKVX
CCRF-CEM = test system: CCRF-CEM
NCI-H522 = test system: NCI-H522
TK-10 = test system: TK-10
SF-268 = test system: SF-268
SR = test system: SR
SF-295 = test system: SF-295
HCC 2998 = test system: HCC 2998
SNB-19 = test system: SNB-19

`COc1cc(CNc2ccc3nc4n(c(=O)c3c2)CCCCC4)cc(OC)c1OC` was tested, and the GI50 (ACHN) was 35.2 µM (inactive), the GI50 (DU-145) was 66.7 µM (inactive) and the GI50 (A498) was 50.6 µM (inactive). The GI50 (UACC-257) was 24.3 µM (inactive), the GI50 (LOX IMVI) was 55.2 µM (inactive) and the GI50 (U-251) was > 100 µM (inactive). The GI50 (MOLT-4) was 32.7 µM (inactive), the GI50 (BT-549) was 19.6 µM (inactive) and the GI50 (NCI/ADR-RES) was 40.4 µM (inactive). For the same compound, the GI50 (OVCAR-8) was > 100 µM (inactive), the GI50 (SK-MEL-2) was 40.4 µM (inactive) and the GI50 (HOP-92) was 76 µM (inactive). The GI50 (PC-3) was 44.4 µM (inactive), the GI50 (MCF7) was 32.2 µM (inactive) and the GI50 (SF-539) was > 100 µM (inactive). For the same compound, the GI50 (786-0) was > 100 µM (inactive), the GI50 (HCT-15) was 45.6 µM and the GI50 (MDA-N) was 46.2 µM (inactive). For the same compound, the GI50 (Hs-578T) was 51.9 µM (inactive), the GI50 (HOP-62) was 95.1 µM (inactive) and the GI50 (CAKI-1) was 64 µM (inactive). For the same compound, the GI50 (K562) was > 100 µM (inactive), the GI50 (IGROV-1) was 95.1 µM (inactive) and the GI50 (HCT-116) was 57.5 µM (inactive). The GI50 (Malme-3M) was 30.7 µM (inactive), the GI50 (SK-OV-3) was > 100 µM (inactive) and the GI50 (UO-31) was 35.4 µM (inactive). The GI50 (MDA-MB-231) was 27.3 µM (inactive), the GI50 (T47D) was 24.1 µM (inactive) and the GI50 (SK-MEL-28) was 43.4 µM (inactive). For the same compound, the GI50 (UACC-62) was 43.6 µM (inactive), the GI50 (SNB-75) was 48.9 µM (inactive) and the GI50 (RXF 393) was 58.6 µM (inactive). For the same compound, the GI50 (OVCAR-5) was > 100 µM (inactive), the GI50 (KM12) was 58.6 µM (inactive) and the GI50 (NCI-H23) was 37.2 µM (inactive). The GI50 (NCI-H226) was 78.9 µM (inactive), the GI50 (SW-620) was > 100 µM (inactive) and the GI50 (RPMI-8226) was 72.3 µM (inactive). The GI50 (A549) was 51.1 µM (inactive), the GI50 (OVCAR-4) was 22.7 µM (inactive) and the GI50 (HL-60) was > 100 µM (inactive). The GI50 (OVCAR-3) was 39.8 µM (inactive), the GI50 (HT-29) was 81.7 µM (inactive) and the GI50 (NCI-H460) was 39.9 µM (inactive). For the same compound, the GI50 (COLO 205) was 35.9 µM (inactive), the GI50 (MDA-MB-435) was 31.7 µM (inactive) and the GI50 (SK-MEL-5) was 22.3 µM (inactive). For the same compound, the GI50 (SN12C) was > 100 µM (inactive), the GI50 (M14) was 94.4 µM (inactive) and the GI50 (EKVX) was 36.6 µM (inactive). The GI50 (CCRF-CEM) was 13.6 µM (inactive), the GI50 (NCI-H522) was 39.9 µM (inactive) and the GI50 (TK-10) was 84.7 µM (inactive). For the same compound, the GI50 (SF-268) was 86.7 µM (inactive), the GI50 (SR) was > 100 µM (inactive) and the GI50 (SF-295) was 47.9 µM (inactive).
For `CC12ON(P(=O)(c3ccccc3)c3ccccc3)C(C)(c3ccccc31)c1ccccc12`, the GI50 (ACHN) was > 100 µM (inactive), the GI50 (HCC 2998) was > 100 µM (inactive) and the GI50 (DU-145) was > 100 µM (inactive). The GI50 (UACC-257) was > 100 µM (inactive), the GI50 (LOX IMVI) was > 100 µM (inactive) and the GI50 (U-251) was > 100 µM (inactive). For the same compound, the GI50 (MOLT-4) was 32.7 µM (inactive), the GI50 (BT-549) was > 100 µM (inactive) and the GI50 (NCI/ADR-RES) was > 100 µM (inactive). The GI50 (OVCAR-8) was > 100 µM (inactive), the GI50 (SK-MEL-2) was > 100 µM (inactive) and the GI50 (HOP-92) was > 100 µM (inactive). The GI50 (PC-3) was > 100 µM (inactive), the GI50 (SNB-19) was > 100 µM (inactive) and the GI50 (MCF7) was 0.675 µM (active). For the same compound, the GI50 (SF-539) was > 100 µM (inactive), the GI50 (786-0) was > 100 µM (inactive) and the GI50 (HCT-15) was > 100 µM. The GI50 (MDA-N) was > 100 µM (inactive), the GI50 (Hs-578T) was > 100 µM (inactive) and the GI50 (HOP-62) was > 100 µM (inactive). For the same compound, the GI50 (CAKI-1) was > 100 µM (inactive), the GI50 (K562) was 88.3 µM (inactive) and the GI50 (IGROV-1) was > 100 µM (inactive). For the same compound, the GI50 (HCT-116) was > 100 µM (inactive), the GI50 (Malme-3M) was > 100 µM (inactive) and the GI50 (SK-OV-3) was > 100 µM (inactive). For the same compound, the GI50 (UO-31) was > 100 µM (inactive), the GI50 (MDA-MB-231) was > 100 µM (inactive) and the GI50 (T47D) was 51.3 µM (inactive). For the same compound, the GI50 (SK-MEL-28) was > 100 µM (inactive), the GI50 (UACC-62) was > 100 µM (inactive) and the GI50 (SNB-75) was > 100 µM (inactive). For the same compound, the GI50 (RXF 393) was 81.7 µM (inactive), the GI50 (OVCAR-5) was > 100 µM (inactive) and the GI50 (KM12) was > 100 µM (inactive). For the same compound, the GI50 (NCI-H23) was > 100 µM (inactive), the GI50 (NCI-H226) was > 100 µM (inactive) and the GI50 (SW-620) was > 100 µM (inactive). The GI50 (RPMI-8226) was 58.9 µM (inactive), the GI50 (A549) was > 100 µM (inactive) and the GI50 (OVCAR-4) was 21.5 µM (inactive). For the same compound, the GI50 (HL-60) was 55.6 µM (inactive), the GI50 (OVCAR-3) was > 100 µM (inactive) and the GI50 (HT-29) was > 100 µM (inactive). For the same compound, the GI50 (NCI-H460) was 67.5 µM (inactive), the GI50 (COLO 205) was > 100 µM (inactive) and the GI50 (MDA-MB-435) was > 100 µM (inactive). For the same compound, the GI50 (SK-MEL-5) was > 100 µM (inactive), the GI50 (SN12C) was > 100 µM (inactive) and the GI50 (M14) was > 100 µM (inactive). For the same compound, the GI50 (EKVX) was > 100 µM (inactive), the GI50 (CCRF-CEM) was 46.2 µM (inactive) and the GI50 (NCI-H522) was > 100 µM (inactive). For the same compound, the GI50 (TK-10) was > 100 µM (inactive), the GI50 (SF-268) was > 100 µM (inactive) and the GI50 (SR) was 46.1 µM (inactive). The GI50 (SF-295) was > 100 µM (inactive).
`CC/N=C(\N)CSS(=O)(=O)O` was tested, and the GI50 (ACHN) was > 100 µM (inactive), the GI50 (DU-145) was > 100 µM (inactive) and the GI50 (A498) was > 100 µM (inactive). The GI50 (UACC-257) was > 100 µM (inactive), the GI50 (LOX IMVI) was 38.3 µM (inactive) and the GI50 (U-251) was 71.1 µM (inactive). For the same compound, the GI50 (MOLT-4) was 34.6 µM (inactive), the GI50 (BT-549) was > 100 µM (inactive) and the GI50 (NCI/ADR-RES) was > 100 µM (inactive). For the same compound, the GI50 (OVCAR-8) was > 100 µM (inactive), the GI50 (SK-MEL-2) was > 100 µM (inactive) and the GI50 (HOP-92) was > 100 µM (inactive). The GI50 (PC-3) was > 100 µM (inactive), the GI50 (SNB-19) was > 100 µM (inactive) and the GI50 (MCF7) was > 100 µM (inactive). The GI50 (SF-539) was > 100 µM (inactive), the GI50 (786-0) was > 100 µM (inactive) and the GI50 (HCT-15) was > 100 µM. For the same compound, the GI50 (MDA-N) was > 100 µM (inactive), the GI50 (Hs-578T) was > 100 µM (inactive) and the GI50 (HOP-62) was > 100 µM (inactive). The GI50 (CAKI-1) was > 100 µM (inactive), the GI50 (K562) was > 100 µM (inactive) and the GI50 (IGROV-1) was > 100 µM (inactive). For the same compound, the GI50 (HCT-116) was > 100 µM (inactive), the GI50 (Malme-3M) was > 100 µM (inactive) and the GI50 (SK-OV-3) was > 100 µM (inactive). The GI50 (MDA-MB-231) was > 100 µM (inactive), the GI50 (T47D) was > 100 µM (inactive) and the GI50 (SK-MEL-28) was > 100 µM (inactive). For the same compound, the GI50 (UACC-62) was > 100 µM (inactive), the GI50 (SNB-75) was > 100 µM (inactive) and the GI50 (RXF 393) was > 100 µM (inactive). For the same compound, the GI50 (OVCAR-5) was > 100 µM (inactive), the GI50 (KM12) was > 100 µM (inactive) and the GI50 (NCI-H23) was > 100 µM (inactive). For the same compound, the GI50 (NCI-H226) was > 100 µM (inactive), the GI50 (SW-620) was > 100 µM (inactive) and the GI50 (RPMI-8226) was > 100 µM (inactive). The GI50 (A549) was > 100 µM (inactive), the GI50 (OVCAR-4) was > 100 µM (inactive) and the GI50 (HL-60) was > 100 µM (inactive). The GI50 (OVCAR-3) was > 100 µM (inactive), the GI50 (HT-29) was > 100 µM (inactive) and the GI50 (NCI-H460) was 77.3 µM (inactive). For the same compound, the GI50 (COLO 205) was > 100 µM (inactive), the GI50 (MDA-MB-435) was > 100 µM (inactive) and the GI50 (SK-MEL-5) was > 100 µM (inactive). The GI50 (SN12C) was > 100 µM (inactive), the GI50 (M14) was > 100 µM (inactive) and the GI50 (EKVX) was > 100 µM (inactive). For the same compound, the GI50 (CCRF-CEM) was > 100 µM (inactive), the GI50 (NCI-H522) was > 100 µM (inactive) and the GI50 (TK-10) was > 100 µM (inactive). The GI50 (SF-268) was > 100 µM (inactive), the GI50 (SR) was 36.5 µM (inactive) and the GI50 (SF-295) was > 100 µM (inactive).
